The text below walks through data of ChEMBL document CHEMBL3046347, “Synthesis and biological evaluation of novel curcumin analogues as anti-inflammatory, anti-cancer and anti-oxidant agents” (Med Chem Res, 2012).

In data set [1] the test system is ACHN. Briefly: Cytotoxicity against Homo sapiens (human) ACHN cells at 500 nM after 48 hr by propidium iodide-based fluorometric assay. Format: functional. To be noted: read-out: GI.
For data set [2], the system named is HCT-116. Briefly: Cytotoxicity against Homo sapiens (human) HCT116 cells at 500 nM after 48 hr by propidium iodide-based fluorometric assay. The note with it: HCT-116, 48 h, read-out: GI. The format is functional.
Data set [3] has as its system Calu-1. Briefly: Cytotoxicity against Homo sapiens (human) Calu1 cells at 500 nM after 48 hr by propidium iodide-based fluorometric assay. Format: functional. The note with it: Calu-1, 48 h, read-out: GI.
The nature of data set [4]: Cytotoxicity against Homo sapiens (human) H460 cells at 500 nM after 48 hr by propidium iodide-based fluorometric assay. To be noted: NCI-H460, 48 h, read-out: GI. The format is functional.
Data set [5] deals with PANC-1. The experiment in a line: Cytotoxicity against Homo sapiens (human) PANC1 cells at 500 nM after 48 hr by propidium iodide-based fluorometric assay. The format is functional. The note with it: PANC-1, 48 h, read-out: GI.
Data set [6] can be described thus: Antioxidant activity assessed as reduction of potassium ferricynide at 1 mM after 10 min by spectrophotometric analysis. The format is functional. Details: scale not given: the % may be the effect or the level left.
Data set [7] in a line: Antioxidant activity assessed as hydroxyl radical scavenging activity at 1 mM by spectrophotometric analysis. The format is functional.
The nature of data set [8]: Antioxidant activity assessed as reduction of potassium ferricynide at 1 uM after 10 min by spectrophotometric analysis. Format: functional. On the set-up: scale not given: the % may be the effect or the level left.
Data set [9] can be described thus: Antioxidant activity assessed as hydroxyl radical scavenging activity at 1 uM by spectrophotometric analysis. The format is functional.
For data set [10], the system named is Radical scavenging activity. The experiment in a line: Antioxidant activity assessed as DPPH radical scavenging activity at 1 uM after 20 min by spectrophotometric analysis. Format: functional. On the technique in general: DPPH is a stable violet radical that fades when it is reduced.
Data set [11] relates to ACHN. The experiment in a line: Cytotoxicity against Homo sapiens (human) ACHN cells at 10 uM after 48 hr by propidium iodide-based fluorometric assay. The format is functional. The note with it: read-out: GI.
The subject of data set [12] is HCT-116. The experiment in a line: Cytotoxicity against Homo sapiens (human) HCT116 cells at 10 uM after 48 hr by propidium iodide-based fluorometric assay. Format: functional. To be noted: HCT-116, 48 h, read-out: GI.
The subject of data set [13] is Calu-1. Briefly: Cytotoxicity against Homo sapiens (human) Calu1 cells at 10 uM after 48 hr by propidium iodide-based fluorometric assay. The format is functional. To be noted: Calu-1, 48 h, read-out: GI.
A short description of data set [14]: Cytotoxicity against Homo sapiens (human) H460 cells at 10 uM after 48 hr by propidium iodide-based fluorometric assay. The format is functional. To be noted: NCI-H460, 48 h, read-out: GI.
Data set [15] has as its system PANC-1. Briefly: Cytotoxicity against Homo sapiens (human) PANC1 cells at 10 uM after 48 hr by propidium iodide-based fluorometric assay. Format: functional. To be noted: PANC-1, 48 h, read-out: GI.
The target in data set [16] is T1, Beta-glucuronidase (Homo sapiens) (UniProt P08236).
T1 sequence (whole entry): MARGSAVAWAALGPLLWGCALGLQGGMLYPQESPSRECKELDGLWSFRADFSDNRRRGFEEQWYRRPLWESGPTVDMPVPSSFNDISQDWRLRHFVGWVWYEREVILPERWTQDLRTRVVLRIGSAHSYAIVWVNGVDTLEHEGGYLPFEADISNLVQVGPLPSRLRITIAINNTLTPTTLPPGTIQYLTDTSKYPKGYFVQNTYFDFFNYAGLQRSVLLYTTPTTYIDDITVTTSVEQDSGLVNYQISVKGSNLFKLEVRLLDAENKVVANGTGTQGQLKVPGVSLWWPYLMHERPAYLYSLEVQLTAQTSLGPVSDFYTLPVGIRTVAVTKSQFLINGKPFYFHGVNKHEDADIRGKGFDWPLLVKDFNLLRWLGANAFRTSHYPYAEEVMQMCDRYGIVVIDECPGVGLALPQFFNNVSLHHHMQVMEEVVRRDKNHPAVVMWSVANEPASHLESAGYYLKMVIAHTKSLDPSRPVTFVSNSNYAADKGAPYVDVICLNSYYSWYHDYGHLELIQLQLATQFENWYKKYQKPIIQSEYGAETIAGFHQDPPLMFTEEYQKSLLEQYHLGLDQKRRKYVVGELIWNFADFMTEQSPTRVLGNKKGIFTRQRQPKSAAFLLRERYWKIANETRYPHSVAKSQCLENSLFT
Briefly: Inhibition of beta-glucuronidase (unknown origin) using p-nitrophenyl-beta-D-glucopyranosiduronic acid as substrate at 1 uM after 30 min by spectrophotometric analysis.

Data set [17] concerns the target Trypsin (Homo sapiens) (UniProt P07477+P07478+P35030). The experiment in a line: Inhibition of trypsin (unknown origin) using bovine serum albumin as substrate at 1 uM incubated for 20 min prior to substrate addition measured after 25 min by Lowry method. The format is protein assay.
Data set [18] concerns the target T2, Prostaglandin G/H synthase 2 (Ovis aries) (UniProt P79208).
T2 sequence (whole entry): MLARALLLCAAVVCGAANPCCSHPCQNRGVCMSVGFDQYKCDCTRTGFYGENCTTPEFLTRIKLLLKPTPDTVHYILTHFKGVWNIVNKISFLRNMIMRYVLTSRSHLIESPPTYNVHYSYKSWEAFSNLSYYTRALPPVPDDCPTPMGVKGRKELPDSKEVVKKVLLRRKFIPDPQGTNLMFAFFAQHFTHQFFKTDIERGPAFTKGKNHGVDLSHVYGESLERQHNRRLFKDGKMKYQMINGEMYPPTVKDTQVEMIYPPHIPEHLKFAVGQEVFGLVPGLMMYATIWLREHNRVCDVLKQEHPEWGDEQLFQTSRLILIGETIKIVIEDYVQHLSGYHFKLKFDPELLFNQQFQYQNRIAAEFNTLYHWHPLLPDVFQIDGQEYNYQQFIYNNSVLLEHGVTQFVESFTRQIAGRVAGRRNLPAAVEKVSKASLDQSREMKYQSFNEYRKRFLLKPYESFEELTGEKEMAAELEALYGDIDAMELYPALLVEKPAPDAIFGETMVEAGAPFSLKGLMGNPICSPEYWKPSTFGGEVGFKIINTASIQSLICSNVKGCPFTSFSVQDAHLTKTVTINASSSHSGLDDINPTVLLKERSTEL
Briefly: Inhibition of Ovis aries (sheep) COX2 at 1 uM after 5 min by colorimetric analysis.

A short description of data set [19]: Cytotoxicity against Homo sapiens (human) […] cells at 10 uM. Format: cell-based.
Data set [20] has as its system THP-1. The experiment in a line: Anti-inflammatory activity in Homo sapiens (human) THP1 cells assessed as inhibition of LPS-induced IL6 production at 10 uM incubated for 30 min prior to LPS-challenge measured after 24 hr by ELISA. The format is functional.
Data set [21] relates to THP-1. The experiment in a line: Anti-inflammatory activity in Homo sapiens (human) THP1 cells assessed as inhibition of LPS-induced TNFalpha production at 10 uM incubated for 30 min prior to LPS-challenge measured after 24 hr by ELISA. The format is functional.
Data set [22] concerns the target T3, Prostaglandin G/H synthase 1 (Ovis aries) (UniProt P05979).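 Note: colorimetric read-out, measured after 5 min.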
T3 sequence (whole entry): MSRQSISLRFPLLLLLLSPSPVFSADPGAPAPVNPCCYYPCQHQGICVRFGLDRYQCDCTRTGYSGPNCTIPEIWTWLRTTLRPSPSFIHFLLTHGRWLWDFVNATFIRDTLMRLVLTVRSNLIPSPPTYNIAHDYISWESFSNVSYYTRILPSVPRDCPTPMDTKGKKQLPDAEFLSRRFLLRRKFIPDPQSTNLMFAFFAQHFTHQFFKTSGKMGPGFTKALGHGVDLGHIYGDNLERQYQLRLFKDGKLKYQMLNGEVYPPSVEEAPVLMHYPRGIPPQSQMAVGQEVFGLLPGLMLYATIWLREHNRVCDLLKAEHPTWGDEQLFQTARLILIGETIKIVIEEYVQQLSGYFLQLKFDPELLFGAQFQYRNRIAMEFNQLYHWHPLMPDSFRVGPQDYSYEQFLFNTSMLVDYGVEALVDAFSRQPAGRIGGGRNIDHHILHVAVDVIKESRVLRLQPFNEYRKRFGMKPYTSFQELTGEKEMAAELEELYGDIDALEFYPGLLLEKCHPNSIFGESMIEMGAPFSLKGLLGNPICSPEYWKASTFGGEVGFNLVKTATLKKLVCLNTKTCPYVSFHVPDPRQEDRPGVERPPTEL
The note with it: at 1 µM.
Description: Inhibition of Ovis aries (sheep) COX1 at 1 uM after 5 min by colorimetric analysis

Usually inhibition stands for the change of the read-out against control, counted positive when it falls.

As to `Nc1ccn([C@@H]2O[C@H](CO)[C@@H](O)C2(F)F)c(=O)n1` [GEMCITABINE], the inhibition of growth at 0.5 µM in data set [1] was 84%; in data set [2] it was 86%; in data set [3] it was 87%; in [4] it was 79%; in [5], 78%.
Turning to `O=C1O[C@H]([C@@H](O)CO)C(O)=C1O`, the Activity is 78.9% in [6] and 45.9% in data set [7].
Take `COc1ccc(C(=O)Nc2cccc(C(=O)/C=C/c3c(OC)cc(OC)c(Br)c3OC)c2)cc1`: the Activity in data set [8] was 26.9%; in data set [9], 21.2%; in data set [10], 36.3%; in [19], 65%. The inhibition of growth at 10 µM in data set [11] was found to be 97%; in data set [12] it was 98%; in [13], 99%; in [14] it was 98%; in [15], 99%. Besides, the inhibition in data set [16] is 34%; in [17], 39.6%; in data set [18] it was 38%; in data set [22] it was 19.6%. In addition, the inhibition at 10 µM in data set [20] stood at 94%; in data set [21] it was 63%.
In the case of `COc1cc(OC)c(/C=C/C(=O)c2cccc(NC(=O)c3ccc(C(C)(C)C)cc3)c2)c(OC)c1Br`, the Activity came to 36.8% in data set [8], 27.3% in data set [9], 43.6% in data set [10] and 56% in data set [19]. In addition, the inhibition of growth at 10 µM came to 35% in [11]; 10% in data set [12]; 32% in data set [13]; 51% in data set [14]; 37% in data set [15]. Further, the inhibition in data set [16] stood at 82.5%; in [17], 69.6%; in data set [18], 85.8%; in data set [22], 64.6%. Further, the inhibition at 10 µM was found to be 96% in data set [20] and 83% in data set [21].
For `COc1cc(OC)c(/C=C/C(=O)c2cccc(NC(=O)c3ccccc3C)c2)c(OC)c1Br`, the Activity in data set [8] is 22.3%; in data set [9], 34.6%; in data set [10] it was 31.1%; in data set [19] it was 54%. The inhibition of growth at 10 µM in [11] worked out at 15%; in data set [12] it was 21%; in [13], 0%; in data set [14], 32%; in [15], 3%. Further, the inhibition was 29.7% in data set [16], 35.5% in data set [17], 43.7% in [18] and 31.5% in [22]. Moreover, the inhibition at 10 µM came to 95% in data set [20] and 72% in data set [21].
Regarding `COc1cc(OC)c(/C=C/C(=O)c2cccc(NC(=O)c3ccccc3C(F)(F)F)c2)c(OC)c1Br`, the Activity came to 42.9% in [8], 35.9% in data set [9], 44.6% in [10] and 62% in [19]. Moreover, the inhibition of growth at 10 µM in [11] stood at 6%; in data set [12], 6%; in data set [13], 0%; in data set [14], 11%; in [15], 3%. The inhibition in data set [16] was determined as 76.9%; in data set [17] it was 68.4%; in data set [18], 87.9%; in data set [22], 39.9%. Besides, the inhibition at 10 µM in [20] is 95%; in data set [21], 85%.
For the compound `COc1cc(OC)c(/C=C/C(=O)c2cccc(NC(=O)c3cccc(C)c3)c2)c(OC)c1Br`, the Activity in [8] turned out to be 29.2%; in [9], 38.3%; in [10], 36.7%; in [19], 56%. Also, the inhibition of growth at 10 µM in data set [11] worked out at 28%; in data set [12], 30%; in data set [13], 22%; in data set [14], 32%; in data set [15] it was 23%. Besides, the inhibition in data set [16] is 66.9%; in data set [17], 51.6%; in [18], 48.2%; in [22], 24.2%. In addition, the figures for the inhibition at 10 µM in data set [20] and in [21] were 97% and 87%, respectively.
Consider `COc1cc(OC)c(/C=C/C(=O)c2cccc(NC(=O)c3ccccc3)c2)c(OC)c1Br`, for which the Activity in [8] was 46.6%; in data set [9], 54.1%; in data set [10], 49.4%; in data set [19] it was 65%. In addition, the inhibition of growth at 10 µM in data set [11] came to 21%; in [12], 0%; in data set [13], 6%; in data set [14], 14%; in data set [15], 10%. Further, the inhibition in data set [16] was 49.6%; in data set [17], 58.1%; in [18], 65.7%; in data set [22], 51.9%. The inhibition at 10 µM was found to be 98% in [20] and 91% in [21].
